Entries after “also recorded” stand apart in the source; their conditions may differ. Positions of bridges follow the written chain, without caps; N, C: chain ends. No end group written: not given here.
How the values were obtained:
[1] = test system: isolated perfused hearts from mice; experiment: Whole heart contractility and heart rate, Langendorff perfused mouse heart; settings: native Cas 100 nM, n=5
Description: Hearts were isolated from adult male mice anaesthetized with a first intraperitoneal injection of a mixture comprising ketamine (100 mg/kg) and xylazine (10 mg/kg), and a second one of sodium pentobarbital (45 mg/kg; Ceva Santé Animale, France). An intraperitoneal injection of heparin (7500IU/kg; Sanofi Aventis, France) was administered in order to avoid thrombus formation. A thoracotomy was performed and beating hearts were quickly removed and excised into ice-cold modified Krebs-Henseleit buffer containing (mM): NaCl 116; KCl 5; MgSO4 1.1; NaH2P0_4 0.35; NaHCO3 27; CaC1_2 1.8 and glucose 10. Buffer was gassed with 95% O2 and 5% CO2, giving a pH of 7.4 at 37 °C. Before use, the buffer was initially passed through a 0.2 µm filter (Sarstedt, USA). The aorta was cannulated under magnification and hearts were quickly mounted and perfused on the Langendorff perfusion system (Isolated heart system, EMKA Technologies, France). The coronary circulation was perfused at a constant pressure (70 mmHg) over a 1 to 4 ml/min flow range with modified Krebs-Henseleit buffer. During the stabilization phase, the heart was continuously perfused with modified Krebs-Henseleit and the electrocardiogram (ECG) was recorded through Ag/AgCl electrodes positioned on the right atrium and near the apex. Heart temperature was of 37 °C as continuously assessed by a probe positioned on the base of the heart and recorded by using a TH-5 monitoring thermometer (Phymep, USA). LV pressure was continuously measured by a home-made balloon inserted into the LV cavity by the left atrium and connected to the EMKA amplifier. After 20 min of stabilization (baseline), 100 nM Cas was perfused into the heart for 7 min. Then, the modified Krebs-Henseleit buffer was perfused for 1 h allowing to wash the effects of the Cas toxin. During the whole ex vivo protocol, the left ventricular pressure signals were continuously digitized at […] and recorded using an IOX data acquisition system (EMKA Technologies, France). Data were analyzed using ecgAUTOv3.3.3.12 (EMKA technologies) and MATLAB-R2021b (The MathWorks) custom-made script
(§1) In all experiments of cellular electrophysiology, we employed synthetized analog of Cas, commercially available at Latoxan (ID: L8109). The native peptide was purified from the venom of Dendroaspis polylepis purchased from Latoxan, as previoulsly described. The pure peptide was obtained after gel filtration, cation exchange and C18 reversed phase chromatography. Its measured molecular mass (7036.26 Da average) was in accordance with the mass calculated from sequence data (7036.22 Da).

[2] = test system: Cav1.3_42a; experiment: Whole cell recording of ICav1.3-42a in HEK-293T cells; type: cell-based; settings: for L-type Ca2+ current density: mean ± SEM, n=9
Description: HEK-293T (RRID:CVCL_2737) were obtained from the European Collection of Authenticated Cell Cultures (ECACC 96121229). The identity of HEK-293T has been confirmed by STR profiling and the cells have been eradicated from mycoplasma at ECACC. We routinely tested the cells for the absence of the mycoplasma contamination. Cells were cultivated at 37 °C in DMEM supplemented with GlutaMax, 10% fetal bovine serum and 1% penicillin/streptomycin (Invitrogen, Fisher Scientific, France). Transfections were performed using jet-PEI (Ozyme, France) with a DNA mix containing either the plasmids that code for Cav1.2-GFP, β2a and α2δ (0.8 µg of each) or either the plasmids that code for Cav1.3 (with and without exon 42a), or Cav2.1, or either Cav2.2 combined with β2a and α2δ (0.8 µg of each supplemented with 0.025 µg of a plasmid coding for GFP). For Cav3.1 expression β2a and α2δ subunits were omitted. Plasmids coding for β2a, α2δ and Cav1.3 were created as described previously. Plasmid coding for Cav1.2-GFP was obtained from Dr. Catalucci[60]. After transfection cells were placed at 30 °C for 2–3 days and dissociated with Versene (Invitrogen, Fisher Scientific, France) and plated at a density of ~35 × 10^3 cells per 35 mm Petri dish for electrophysiological recordings, which were performed the following day.
Macroscopic currents in HEK-293T cells were recorded at room temperature using an Axopatch 200B or Multiclamp 700B patchclamp amplifier (Molecular Devices, Sunnyvale CA). […] The extracellular solution contained (in mM): 135 NaCl, 20 TEACl, 5 BaCl2, 1 MgCl2, and 10 HEPES (pH adjusted to 7.25 with KOH, ~330 mOsm).
as §1

[3] = test system: Cav3.1 T-type; experiment: Ca2+ current in HEK-293T cells expressing Cav3.1; type: cell-based; settings: Cas 300 nM (n=13/N=3) and 1 µM (n=10/N=3); holding -80 mV, step -30 mV
Description: (§2) HEK-293T (RRID:CVCL_2737) were obtained from the European Collection of Authenticated Cell Cultures (ECACC 96121229). The identity of HEK-293T has been confirmed by STR profiling and the cells have been eradicated from mycoplasma at ECACC. We routinely tested the cells for the absence of the mycoplasma contamination. Cells were cultivated at 37 °C in DMEM supplemented with GlutaMax, 10% fetal bovine serum and 1% penicillin/streptomycin (Invitrogen, Fisher Scientific, France). […]
(§3) Macroscopic currents in HEK-293T cells were recorded at room temperature using an Axopatch 200B or Multiclamp 700B patchclamp amplifier (Molecular Devices, Sunnyvale CA). […]
(§4) In all experiments of cellular electrophysiology, we employed synthetized analog of Cas, commercially available at Latoxan (ID: L8109). […] Its measured molecular mass (7036.26 Da average) was in accordance with the mass calculated from sequence data (7036.22 Da). […]
(§5) n=10/N=3) channels. Peak current density wa s recorded starting f rom a holding potential of -80mV using an activating voltage step at -30mV for Cav3.1, f ro m a holding potential of -90mV using an activating voltage step at +20mV for Cav2.2 and f rom a holding potential of -80mV using an activating voltage step at 0mV for Cav2.1. Exam ples of recorded traces are reported. […]

[4] = test system: Cav2.2 N-type; experiment: Ca2+ current in HEK-293T cells expressing Cav2.2; type: cell-based; settings: Cas 300 nM (n=11/N=3) and 1 µM (n=9/N=3); holding -90 mV, step +20 mV
Description: as §2, §3, §4, §5

[5] = test system: DHP binding site, brain synaptosomes; settings: at a rather high concentration; cited from earlier work
Excerpt: DHPs are prototypical organic blockers of L-type calcium channels widely used in therapeutical applications.

In the case of “RICYIHKASLPRATKTCVENTCYKMFIRTQREYISERGCGCPTAMWPYQTECCKGDRCNK (disulfide 3-22, 17-39, 41-52, 53-58 (inferred)) [Cas, calciseptine]”, the episodes of arrhythmia [1] is reported as “did not observe episodes of arrhythmia”, the “left ventricular (LV) contraction amplitude” value ([1]; perfused 7 min, 37 °C, before 51 ± 3 mmHg, mean ± SEM) is reported as 9 ± 2 mmHg and the “contraction velocity (dP/dt max)” value ([1]; before 1.7 ± 0.2, mean ± SEM) is reported as 0.4 ± 0.1 mmHg/ms. For the same sequence, the baseline diastolic pressure ([1]; before 8 ± 2 mmHg, mean ± SEM) was 8 ± 3 mmHg, the “relaxation time constant (Ƭ)” value ([1]; before 10 ± 1 ms, not affected, mean ± SEM) was 13 ± 2 ms and the “time-to-peak interval (time to maximal pressure)” value ([1]; before 54 ± 1 ms, not affected, mean ± SEM) was 50 ± 3 ms. The “averaged inter-beat (RR) interval” value ([1]; before 273 ± 17 ms, p > 0.05, mean ± SEM) was 271 ± 17 ms, the “relaxation velocity (dP/dt min)” value ([1]; before −1.2 ± 0.1, mean ± SEM) was −0.1 ± 0.1 mmHg/ms and the “effect on ICav1.3-42a (I-V relationship)” value ([2]; Cas 300 nM, all voltages tested, at peak p = 0.8148, n=9/N=4) was “no significant effect”. For the same sequence, the “L-type Ca2+ current density” value ([2]; Cas 300 nM, 0 mV, Ctrl -20.06± 5.37) was -19.52± 4.21 pA/pF, the “L-type Ca2+ current density” value ([2]; Cas 300 nM, +10 mV, Ctrl -13.99± 3.71) was -13.16± 2.99 pA/pF and the “L-type Ca2+ current density” value ([2]; Cas 300 nM, +20 mV, Ctrl -7.80± 2.21) was -6.44± 1.89 pA/pF. For the same sequence, the “L-type Ca2+ current density” value ([2]; Cas 300 nM, +30 mV, Ctrl -2.75± 1.09) was -1.13± 1.30 pA/pF, the “L-type Ca2+ current density” value ([2]; Cas 300 nM, -10 mV, Ctrl -24.04± 6.83) was -23.42± 5.08 pA/pF and the “L-type Ca2+ current density” value ([2]; Cas 300 nM, -20 mV, Ctrl -21.97± 6.85) was -21.55± 4.86 pA/pF. For the same sequence, the “reduction of ICav1.3-42a” value ([2]; all concentrations tested (up to 1 µM), holding −60 mV, step 0 mV, 300 nM n=13/N=4, 1 µM n=8/N=4) was “did not record a statistically significant reduction”, the “effect on Cav3.1 current” value [3] was “failed to detect inhibitory effect; also recorded: had no effect” and the “effect on Cav2.2 current” value [4] was “failed to detect inhibitory effect; also recorded: had no effect”. For the same sequence, the “inhibition of DHP binding” value [5] was “could inhibit binding of DHPs”.
